A short description of data set [1]: Maximum drug concentration in Swiss mouse brain at 120 mg/kg, po measured up to 24 hrs by HPLC analysis. Also on record: route oral, dose 120 mg/kg, time <=24. The data set is classed as ADME, organism-based.
A short description of data set [2]: Apparent oral clearance in human in fed state at 5 to 20 mg using oromucosal-spray formulation cotreated with THC by GC-MS analysis. The data set is classed as ADME. Conditions: in vivo, dose 5-20 mg.
Data set [3] can be described thus: Protein binding in human plasma incubated for 20 to 24 hrs. It counts as ADME, cell-free. As to conditions: time 20-24 hrs, read-out: PPB (converted).
Data set [4] in a line: Toxicity in pig assessed as mean arterial blood pressure drop at 50 mg/kg, iv administered for 15 mins by pulse oximetry relative to baseline. As to conditions: in vivo, 0.25 h. It counts as organism-based, Sus scrofa.
A short description of data set [5]: Cmax in human plasma at 14+/- 15 mg, po. Conditions: 14 mg. Further details: route oral, dose 14 mg. The data set is classed as ADME, cell-free.
The nature of data set [6]: Elimination half-life in human at 10 mg using oromucosal-spray formulation measured upto 24 hrs by LC-MS/MS assay. It counts as ADME. Conditions: in vivo, read-out: beta t1/2 (converted).
The target of data set [7] is Delta-type opioid receptor (Homo sapiens, UniProt P41143). Briefly: Inhibition of delta-type opioid receptor receptor (unknown origin).
Data set [8] can be described thus: Drug degradation in simulated gastric fluid at 40 mg incubated for 2 hrs by UPLC-MS analysis. Conditions: read-out: Drug degradation. The data set is classed as ADME.
A further data set deals with T1, Cytochrome P450 1A2 (Homo sapiens, UniProt P05177).
T1 sequence (P05177 whole entry): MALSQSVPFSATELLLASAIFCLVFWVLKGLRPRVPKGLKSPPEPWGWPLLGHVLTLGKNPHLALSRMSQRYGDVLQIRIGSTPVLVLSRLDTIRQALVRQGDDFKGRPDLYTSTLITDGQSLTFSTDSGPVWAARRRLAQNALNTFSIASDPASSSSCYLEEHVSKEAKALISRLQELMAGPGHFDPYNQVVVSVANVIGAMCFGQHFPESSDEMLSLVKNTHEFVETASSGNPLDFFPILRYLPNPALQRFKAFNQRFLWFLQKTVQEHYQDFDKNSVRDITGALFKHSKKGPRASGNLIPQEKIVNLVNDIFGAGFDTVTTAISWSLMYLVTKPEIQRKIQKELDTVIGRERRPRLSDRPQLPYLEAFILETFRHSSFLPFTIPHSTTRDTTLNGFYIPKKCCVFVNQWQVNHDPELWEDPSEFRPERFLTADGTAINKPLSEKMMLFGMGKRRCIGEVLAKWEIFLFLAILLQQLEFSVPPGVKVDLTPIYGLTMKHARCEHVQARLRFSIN
Kind of data set: Competitive inhibition of human recombinant CYP1A2 using 7-Ethoxyresorufin as substrate by Lineweaver-Burk plot analysis. Conditions: read-out: Ki(app). The data set is classed as ADME.

Data set [9] has as its target T2, Alpha-2C adrenergic receptor (Homo sapiens, UniProt P18825).
T2 sequence (P18825 whole entry): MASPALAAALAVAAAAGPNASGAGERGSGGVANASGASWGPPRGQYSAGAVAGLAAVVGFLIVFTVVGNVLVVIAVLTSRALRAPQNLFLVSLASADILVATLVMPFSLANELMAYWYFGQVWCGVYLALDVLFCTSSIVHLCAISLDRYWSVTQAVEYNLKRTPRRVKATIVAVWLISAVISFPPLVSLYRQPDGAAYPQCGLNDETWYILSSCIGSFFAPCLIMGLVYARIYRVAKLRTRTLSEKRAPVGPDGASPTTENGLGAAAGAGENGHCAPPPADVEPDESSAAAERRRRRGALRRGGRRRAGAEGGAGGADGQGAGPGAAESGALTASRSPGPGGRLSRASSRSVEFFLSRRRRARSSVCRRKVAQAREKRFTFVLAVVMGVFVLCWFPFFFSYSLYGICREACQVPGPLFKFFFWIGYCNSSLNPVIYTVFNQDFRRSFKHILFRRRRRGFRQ
Kind of data set: Inhibition of alpha2C receptor (unknown origin).

A short description of data set [10]: Cmax in mouse brain at 10 mg/kg, sc measured after 1 to 3 hrs by HPLC analysis. It counts as ADME, organism-based. Further details: route subcutaneous, time lower 1 hrs, dose 10 mg/kg, time upper 3 hrs.
A further data set in a line: clinical. As to conditions: human, in vivo, other: aerosol spray, 20 mg.
The target of the next data set is Histamine H3 receptor (Homo sapiens, UniProt Q9Y5N1). Briefly: Inhibition of histamine H3 receptor (unknown origin).
Data set [11] in a line: Half-life in human at 20 mg, iv measured after 0.05 to 72 hrs by gas chromatograph mass spectrometry. It counts as ADME, organism-based. As to conditions: in vivo, time 0.05-72 hrs.
Data set [12] is described as follows: Cmax in human plasma at 3.5 +/- 5.5 mg, INH. The data set is classed as ADME, cell-free. Also on record: dose 3.5 mg. Conditions: inhaled or intranasal, 3.5 mg.
Data set [13] addresses T3, 5-hydroxytryptamine receptor 2C (Homo sapiens, UniProt P28335).
T3 sequence (P28335 whole entry): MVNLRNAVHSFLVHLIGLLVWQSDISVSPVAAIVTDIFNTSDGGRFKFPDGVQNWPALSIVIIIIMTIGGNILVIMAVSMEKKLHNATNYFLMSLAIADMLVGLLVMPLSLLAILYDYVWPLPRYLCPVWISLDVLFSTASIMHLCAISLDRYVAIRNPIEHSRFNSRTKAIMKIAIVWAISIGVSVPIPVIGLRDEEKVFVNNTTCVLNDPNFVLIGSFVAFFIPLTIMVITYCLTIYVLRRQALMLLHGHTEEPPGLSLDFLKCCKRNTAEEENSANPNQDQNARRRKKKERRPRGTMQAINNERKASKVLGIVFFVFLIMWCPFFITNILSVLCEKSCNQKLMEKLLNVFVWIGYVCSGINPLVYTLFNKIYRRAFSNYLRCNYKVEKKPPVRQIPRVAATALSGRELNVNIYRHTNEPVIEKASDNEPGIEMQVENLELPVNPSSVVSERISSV
Kind of data set: Inhibition of 5-HT2C (unknown origin).

In a further data set the test system is Homo sapiens. Kind of data set: Anti-seizure activity in Lennox-Gastaut patient assessed as median percent reduction in seizure frequency at 20 mg/kg administered daily for 14 weeks (reference value: 17%). It counts as functional. Also on record: scale not given: the % may be the effect or the level left.
In a further data set the target is D(1A) dopamine receptor (Homo sapiens, UniProt P21728). Briefly: Inhibition of D1 dopamine receptor (unknown origin).
A further data set concerns the target T4, Cytochrome P450 2C11 (Rattus norvegicus, UniProt P08683).
T4 sequence (P08683 whole entry): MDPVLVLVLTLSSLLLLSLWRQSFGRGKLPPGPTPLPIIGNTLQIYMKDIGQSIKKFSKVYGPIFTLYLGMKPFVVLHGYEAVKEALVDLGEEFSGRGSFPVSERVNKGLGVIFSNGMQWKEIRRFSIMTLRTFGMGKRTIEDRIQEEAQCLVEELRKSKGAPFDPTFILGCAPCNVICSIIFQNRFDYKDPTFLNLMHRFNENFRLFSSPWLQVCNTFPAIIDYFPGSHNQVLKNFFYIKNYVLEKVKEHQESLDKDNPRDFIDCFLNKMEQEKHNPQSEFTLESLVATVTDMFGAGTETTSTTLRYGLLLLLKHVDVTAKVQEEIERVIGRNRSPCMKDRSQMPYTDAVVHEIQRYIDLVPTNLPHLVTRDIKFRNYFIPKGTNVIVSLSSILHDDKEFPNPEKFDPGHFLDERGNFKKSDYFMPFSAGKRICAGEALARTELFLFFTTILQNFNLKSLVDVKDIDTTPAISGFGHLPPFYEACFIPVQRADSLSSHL
Kind of data set: Competitive inhibition of CYP2C11 in rat liver microsomes. The data set is classed as ADME.

Delta-type opioid receptor, sequence (P41143 whole entry): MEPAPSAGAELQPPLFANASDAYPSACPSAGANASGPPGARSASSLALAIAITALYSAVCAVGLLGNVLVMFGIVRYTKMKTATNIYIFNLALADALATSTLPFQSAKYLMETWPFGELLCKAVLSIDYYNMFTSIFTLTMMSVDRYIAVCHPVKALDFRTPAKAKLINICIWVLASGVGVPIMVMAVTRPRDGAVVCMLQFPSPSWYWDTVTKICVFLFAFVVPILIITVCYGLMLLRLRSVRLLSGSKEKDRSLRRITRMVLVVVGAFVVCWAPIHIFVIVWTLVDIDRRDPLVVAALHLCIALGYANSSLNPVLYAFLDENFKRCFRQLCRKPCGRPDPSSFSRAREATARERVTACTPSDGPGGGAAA
Histamine H3 receptor, sequence (Q9Y5N1 whole entry): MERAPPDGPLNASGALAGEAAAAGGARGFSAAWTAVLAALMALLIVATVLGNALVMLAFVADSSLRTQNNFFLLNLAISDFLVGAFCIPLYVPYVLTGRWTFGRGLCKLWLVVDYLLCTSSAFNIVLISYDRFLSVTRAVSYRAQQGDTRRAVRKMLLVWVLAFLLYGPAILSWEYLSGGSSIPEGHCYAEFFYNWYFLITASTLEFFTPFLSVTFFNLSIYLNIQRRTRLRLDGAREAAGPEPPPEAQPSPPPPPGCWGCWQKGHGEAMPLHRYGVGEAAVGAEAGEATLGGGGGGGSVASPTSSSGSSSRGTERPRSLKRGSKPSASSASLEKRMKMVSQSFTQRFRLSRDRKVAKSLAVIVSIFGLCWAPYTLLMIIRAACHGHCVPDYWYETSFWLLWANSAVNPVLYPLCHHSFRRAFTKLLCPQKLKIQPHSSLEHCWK
D(1A) dopamine receptor, sequence (P21728 whole entry): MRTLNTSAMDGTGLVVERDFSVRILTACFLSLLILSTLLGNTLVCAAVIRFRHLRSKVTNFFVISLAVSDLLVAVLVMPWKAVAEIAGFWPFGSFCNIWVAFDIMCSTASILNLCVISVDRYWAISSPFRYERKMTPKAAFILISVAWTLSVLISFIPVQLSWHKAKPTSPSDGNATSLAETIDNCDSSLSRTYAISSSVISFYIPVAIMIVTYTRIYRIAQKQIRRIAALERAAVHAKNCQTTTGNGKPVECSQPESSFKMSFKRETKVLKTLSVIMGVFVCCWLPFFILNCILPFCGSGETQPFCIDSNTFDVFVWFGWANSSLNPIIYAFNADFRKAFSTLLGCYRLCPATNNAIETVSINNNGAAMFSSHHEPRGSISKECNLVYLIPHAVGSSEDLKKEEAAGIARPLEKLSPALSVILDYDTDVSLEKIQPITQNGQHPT
Description for clinical: Elimination rate constant in human at 20 mg using aerosol spray measured for 6 weeks

Consider `C=C(C)[C@@H]1CCC(C)=C[C@H]1c1c(O)cc(CCCCC)cc1O` [CANNABIDIOL], for which the Cmax in [1] was found to be 4000 nM; in data set [5], 0.9 nM; in data set [10] it was 1000 nM; in data set [12], 11.1 nM. The apparent clearance (CL/F) in [2] is 8880 mL/min. In [3], the fraction unbound was 0.1. Also, the Activity in data set [4] is listed as less than 70%; in the data set on Homo sapiens it was 42%. The half-life in data set [6] was 2 h; in data set [11], 24 h. For the same compound, the Ki in data set [7] came out at 6.4 µM; at Cytochrome P450 1A2 it was 2.69 µM; in data set [9], 3.7 µM; on Histamine H3 receptor, 3.1 µM; in data set [13], 1.1 µM; at D(1A) dopamine receptor, 2.7 µM. The Ki at Cytochrome P450 2C11 was 20.7 µM. In data set [8], the degraded at 2 h is 98%. Also, in the data set “clinical”, the k el at 1008 h is 0.000119 s⁻¹.
